Data set [1] deals with interferon. To be noted: statement in words; cited from earlier work.
For data set [2], the system named is hemopoietic stem cells (HSC). Description: Investigation of the effect on hemopoietic stem cell: release into the blood (exogenous colony formation). To be noted: statement in words. It is filed as in vivo, mice. Here is the method: Investigation of the effect on hemopoietic stem cell
Compound I was diluted in physiological saline solution to a concentration of […]. Mice of the experimental groups were inoculated with 0,2 ml of one of the obtained solutions (0,5 and 1 μg/mouse respectively) intraperitoneally. Control animals were given injections of physiological saline solutions. At 1, 2, 3, 4 and 7 days after administration of the test compound, the animals were given heparin (40 units/mouse), and then specimens of the peripheral blood, spleen and bone marrow from thighbones. The blood was diluted 1:1 with physiological saline solution. Bone marrow and spleen suspensions were prepared by the standard method. The content of hemopoietic stem cells (HSC) in the blood, bone marrow and spleens of the animals treated with the preparation were tested by the method of exogenous colony formation in the spleen of syngeneic lethally irradiated recipients; more specifically, diluted peripheral blood (0,1 ml), bone marrow cells (3-5 ×10^4 cells) or spleen cells (5×10^5 cells) were inoculated to lethally irradiated syngeneic recipients which were killed at 8-9 days; their spleens were removed, fixed in Bouin's solution, and the number of visible plaques or colonies developing from HSC was counted.

Data set [3] has as its system hemopoietic stem cells (HSC). In words: Effect on proliferation of HSC (S-phase, oxyurea treatment). The format is in vivo, mice. To be noted: statement in words.
Data set [4] concerns Staphylococcus aureus Wood 46. Description: Investigation of the staphylococcal activity. The format is in vivo, CBA mice infected with Staphylococcus aureus Wood 46. To be noted: dose of 1 μg; statement in words. Here is the method: Investigation of the staphylococcal activity
The preparation was inoculated subcutaneously to CBA mice in doses from 0,1 to 10 μg per mouse, after which the animals were inoculated with 1,25×10^6 microbial cells of Staphylococcus aureus Wood 46.

The subject of data set [5] is α, β, γ interferons in mouse serum.
Procedure: Investigation of induction of α, β, γ interferons in mouse serum in vivo
The level of interferon synthesis in the blood serum was determined at various intervals (5, 24, 48, 72 hours). Interferon titrations were carried out in L-929 cell cultures. The test virus was mouse encephalomyocarditis virus.
Another data set can be described thus: acute toxicity in mice. It is filed as in vivo. The protocol: The novel complex has low toxicity. In investigations of acute toxicity in mice, the LD50 is 900 mg per kilo body weight.
Another data set deals with distemper. In words: Investigation of clinical effectiveness in dogs with distemper. It is filed as in vivo. The settings on record: 2-4 ml of 0,5% solution intramuscularly twice daily for 3-10 days. Here is the method: Investigation of clinical effectiveness in dogs with distemper
Dogs with an established diagnosis of distemper (duration of the disease from 10 to 30 days; in 3 animals--the intestinal form of the disease, in 2- pulmonary form, and in 3 animals--the neuro-paralytic stage) were inoculated intramuscularly with 2-4 ml (depending on the animal's weight) of 0,5% solution of the test compound I in distilled water twice daily for 3-10 days.

The test system of data set [6] is interferon. To be noted: mice, oral administration; cited from earlier work.
Another data set deals with γ-interferon. The settings on record: suspension of mononuclear cells in vitro; cited from earlier work.

The structures appear in SMILES notation.

For `CCC[O][Ge]1([OH])[O]C(=O)c2cccc(n2)C(=O)[O]1` [2,6-pyridinediyl-biscarbonylox-(hydroxypropoxygermanium)], in the data set with interferon [1], the “immune interferon inducer properties” value is recorded as “possessing the properties of an immune interferon inducer” and the immunomodulating activity entry was “narrow spectrum of the immunomodulating activity”.

Consider `O=C1[O][Ge]2([O]C(=O)c3cccc1n3)[O]C(=O)c1cccc(n1)C(=O)[O]2` [Compound I, germanium bis(pyridine-2,6-dicarboxylate)], for which the “number of HSC in the blood” value in [2] is “increases the number of HSC in the blood”. In addition, the “capacity to stimulate HSC release into the S-phase” value in [3] was “No capacity to stimulate HSC release into the S-phase was demonstrated”. Besides, the “resistance of mice to staphylococcus” value in data set [4] is “enhances the resistance of mice to staphylococcus”. The “γ interferon in serum” value in data set [5] (at later intervals postinoculation) is “at later intervals γ interferon”. In addition, the “interferons α and β in serum” value in data set [5] (within the first 5 hours postinoculation) is on record as “detectable”. Also, in the data set “acute toxicity in mice” (mouse, in vivo, mice, acute toxicity), the LD50 (usually the dose expected to kill half of the subjects tested) was 900 mg/kg. The toxicity entry in the data set “acute toxicity in mice” (statement in words) is on record as “low toxicity”. The clinical outcome in the data set on distemper is given as “all the animals became clinically normal”. Besides, the solubility in chloroform result in the data set “solubility” (chloroform) is “insoluble”. Further, in “solubility” (diethylformamide), the solubility in diethylformamide result was “moderately soluble”. For the same molecule, the “solubility in dimethyl sulphoxide” value in “solubility” (dimethyl sulphoxide) was “moderately soluble”. Moreover, the solubility in ethanol result in the data set “solubility” (ethanol) is on record as “insoluble”. Moreover, the solubility in ether entry in “solubility” (ether) is “insoluble”. Also, the solubility in hydrocarbons entry in the data set “solubility” (hydrocarbons) is listed as “insoluble”. Further, in the data set “solubility” (water), the solubility in water result is “moderately soluble”.

`O=C(O)C[CH2][Ge](=[O])[O][Ge](=[O])[CH2]CC(=O)O` [carboxyethylgermanium-sesquioxide]: the “interferon production in the blood” value in the data set on interferon [6] was “capable, upon oral administration, of inducing interferon production in the blood of mice”. Also, the γ-interferon synthesis entry with γ-interferon is “capable of inducing γ-interferon synthesis”. For the same molecule, in the data set with interferon [1], the “effectiveness as an immune interferon inducer” value is listed as “low effectiveness as an immune interferon inducer” and the toxicity entry was “has toxicity”.
